# Test results reported in US20250326722A1 (SHANGHAI HANSOH BIOMEDICAL CO., LTD., priority 2022, published 2025).
# Assays:
# [1] = Pharmacokinetic determination in mice (plasma); assay type: in vivo, C57BL/6J mice; conditions: C57 mice, PO administration, 5 mpk; for AUC(0-inf) / half-life / MRT / Cmax: male, C57BL/6J, mouse, 5 mg/kg; for AUC(0-inf): read-out: Area under the curve AUC0-∞; for half-life: read-out: Half-life t1/2 (converted); for MRT: read-out: Mean residence time MRT; for Cmax: read-out: Plasma concentration Cmax
# How it was run: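 Male C57BL/6J mice (n=3 per route), fasted overnight, got 5 mg/kg PO in 10% Solutol HS15 or 1 mg/kg IV in 5% DMSO/10% Solutol HS15/85% PBS. Orbital blood was sampled at 0.083 (IV only), 0.25, 0.5, 1, 2, 4, 8 and 24 h. EDTA-K2 plasma was quantified by LC-MS/MS for PK parameters.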
# [2] = target: PCSK9 secreted by HepG2 cells (Homo sapiens (Human), UniProt Q8NBP7); assay: Effect on the concentration of PCSK9 secreted by HepG2 cells (ELISA); assay type: cell-based; conditions: 48 hours incubation, read-out: Inhibitory activity on PCSK9, IC50
# PCSK9 secreted by HepG2 cells, sequence (Q8NBP7 153-692): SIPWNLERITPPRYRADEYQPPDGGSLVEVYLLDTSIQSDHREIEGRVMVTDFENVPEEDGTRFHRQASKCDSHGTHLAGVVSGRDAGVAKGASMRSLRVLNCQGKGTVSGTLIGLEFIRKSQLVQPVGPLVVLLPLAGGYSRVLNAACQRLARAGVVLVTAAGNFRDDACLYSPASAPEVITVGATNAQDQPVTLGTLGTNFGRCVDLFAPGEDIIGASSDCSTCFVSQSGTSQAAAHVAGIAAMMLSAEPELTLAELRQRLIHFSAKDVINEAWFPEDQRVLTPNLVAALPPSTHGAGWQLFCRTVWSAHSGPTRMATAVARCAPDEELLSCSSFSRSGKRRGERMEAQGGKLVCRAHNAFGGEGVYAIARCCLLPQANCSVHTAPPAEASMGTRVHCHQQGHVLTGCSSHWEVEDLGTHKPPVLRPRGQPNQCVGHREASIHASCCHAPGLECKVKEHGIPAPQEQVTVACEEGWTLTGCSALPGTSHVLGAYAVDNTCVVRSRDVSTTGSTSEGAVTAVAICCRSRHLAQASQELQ
# PCSK9 secreted by HepG2 cells, sequence (Q8NBP7 31-152 partner): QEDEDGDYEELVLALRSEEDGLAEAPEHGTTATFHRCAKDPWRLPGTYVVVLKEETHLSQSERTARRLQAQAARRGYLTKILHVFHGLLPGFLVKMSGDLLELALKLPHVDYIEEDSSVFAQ
Time to peak tmax [1] [h],AUC(0-inf) [1] [ng·h/mL],half-life [1] [h],MRT [1] [h],Cmax [1] [ng/mL],IC50 [2] [µM],SMILES
1,15000,2.8,4,2820,27.5,O=C1c2ncccc2CN1c1ccc(N[C@H]2CC[C@H](Nc3ncc(C(F)(F)F)nn3)C2)nc1 [Example 144]
1,59800,3.4,4.3,13500,9.4,"Cc1cc2c(cn1)CN(c1ccc(N[C@H]3CC[C@H](Nc4ncc(C(F)(F)F)nn4)C3)nc1)C2=O [Example 148, 6-Methyl-2-(6-(((1S,3S)-3-((6-(trifluoromethyl)-1,2,4-triazin-3-yl)amino)cyclopentyl)amino)pyridin-3-yl)-2,3-dihydro-1H-pyrrolo[3,4-c]pyridin-1-one]"
0.5,6200,3.1,2.6,2190,4.2,"O=C1c2c(cccc2C(F)(F)F)CN1c1ccc(N[C@H]2CC[C@H](Nc3ncc(C(F)(F)F)nn3)C2)nc1 [Example 157, 7-(Trifluoromethyl)-2-(6-(((1S,3S)-3-((6-(trifluoromethyl)-1,2,4-triazin-3-yl)amino)cyclopentyl)amino)pyridin-3-yl) isoindolin-1-one]"
